Data from PubChem BioAssay AID2060895 (Molecular Pharmacology Branch, DTP, NCI, 2025).

System: PDC 899932-113-R3-J6 complex spheroid viability
Experiment: Anticancer human tumor 899932-113-R3-J6-PDC patient-derived melanoma cell line growth inhibition [RAS]
Settings: for viability, T/C: stronger effect = lower value
Outline: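 Agents were tested in combination matrices in half-log decrements from a top concentration at or near clinical Cmax (10 microM if undetermined). Targets were multi-cell spheroids of tumour lines plus HUVEC and MSC stromal cells.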
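Throughout, for viability, T/C: spheroids exposed to agents for seven days before readout; 100% = DMSO vehicle control wells.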

## C=CC(=O)Nc1cc(Nc2nccc(-c3cn(C)c4ccccc34)n2)c(OC)cc1N(C)CCN(C)C + CCn1c(-c2cc(N3CCN(C)CC3)cnc2C(C)OC)c2c3cc(ccc31)-c1csc(n1)CC(NC(=O)C1CC1C)C(=O)N1CCCC(N1)C(=O)OCC(C)(C)C2
Curve of first compound, second compound 0.000949 µM
  IC50: > 1000 nM
Curve of first compound, second compound 0.003 µM
  IC50: < 3.16 nM
Curve of first compound, second compound 0.00949 µM
  IC50: < 3.16 nM
Curve of first compound, second compound 0.03 µM
  IC50: < 3.16 nM
Curve of first compound, second compound 0.0949 µM
  IC50: < 3.16 nM
Curve of first compound, second compound 0.3 µM
  IC50: < 3.16 nM
Second compound 0.000949 µM, first compound 0.00316 µM
  viability, T/C: 69.1%
Second compound 0.000949 µM, first compound 0.01 µM
  viability, T/C: 69.2%
Second compound 0.000949 µM, first compound 0.0316 µM
  viability, T/C: 67%
Second compound 0.000949 µM, first compound 0.1 µM
  viability, T/C: 79.7%
Second compound 0.000949 µM, first compound 0.316 µM
  viability, T/C: 76.7%
Second compound 0.000949 µM, first compound 1 µM
  viability, T/C: 64.3%
Second compound 0.003 µM, first compound 0.00316 µM
  viability, T/C: 32.5%
Second compound 0.003 µM, first compound 0.01 µM
  viability, T/C: 28.4%
Second compound 0.003 µM, first compound 0.0316 µM
  viability, T/C: 28.7%
Second compound 0.003 µM, first compound 0.1 µM
  viability, T/C: 33.8%
Second compound 0.003 µM, first compound 0.316 µM
  viability, T/C: 31.5%
Second compound 0.003 µM, first compound 1 µM
  viability, T/C: 16.9%
Second compound 0.00949 µM, first compound 0.00316 µM
  viability, T/C: 4.3%
Second compound 0.00949 µM, first compound 0.01 µM
  viability, T/C: 3.34%
Second compound 0.00949 µM, first compound 0.0316 µM
  viability, T/C: 3.46%
Second compound 0.00949 µM, first compound 0.1 µM
  viability, T/C: 3.41%
Second compound 0.00949 µM, first compound 0.316 µM
  viability, T/C: 2.9%
Second compound 0.00949 µM, first compound 1 µM
  viability, T/C: 2.5%
Second compound 0.03 µM, first compound 0.00316 µM
  viability, T/C: 2.61%
Second compound 0.03 µM, first compound 0.01 µM
  viability, T/C: 2.72%
Second compound 0.03 µM, first compound 0.0316 µM
  viability, T/C: 2.62%
Second compound 0.03 µM, first compound 0.1 µM
  viability, T/C: 2.55%
Second compound 0.03 µM, first compound 0.316 µM
  viability, T/C: 2.41%
Second compound 0.03 µM, first compound 1 µM
  viability, T/C: 1.43%
Second compound 0.0949 µM, first compound 0.00316 µM
  viability, T/C: 2.26%
Second compound 0.0949 µM, first compound 0.01 µM
  viability, T/C: 2.18%
Second compound 0.0949 µM, first compound 0.0316 µM
  viability, T/C: 2.56%
Second compound 0.0949 µM, first compound 0.1 µM
  viability, T/C: 2.02%
Second compound 0.0949 µM, first compound 0.316 µM
  viability, T/C: 1.87%
Second compound 0.0949 µM, first compound 1 µM
  viability, T/C: 1.11%
Second compound 0.3 µM, first compound 0.00316 µM
  viability, T/C: 2.04%
Second compound 0.3 µM, first compound 0.01 µM
  viability, T/C: 2.23%
Second compound 0.3 µM, first compound 0.0316 µM
  viability, T/C: 1.88%
Second compound 0.3 µM, first compound 0.1 µM
  viability, T/C: 1.96%
Second compound 0.3 µM, first compound 0.316 µM
  viability, T/C: 1.49%
Second compound 0.3 µM, first compound 1 µM
  viability, T/C: 1.11%

## Nc1ccn(C2OC(CO)C(O)C2(F)F)c(=O)n1 (configuration not stated) + C=CC(=O)N1CCN(c2nc(OCC3CCCN3C)nc3c(F)c(-c4nc(N)cc(C)c4C(F)(F)F)c(Cl)cc23)C(C)C1
Curve of first compound, second compound 0.00316 µM
  IC50: 19.4 nM
Curve of first compound, second compound 0.01 µM
  IC50: 19.3 nM
Curve of first compound, second compound 0.0316 µM
  IC50: 21.2 nM
Curve of first compound, second compound 0.1 µM
  IC50: 22.2 nM
Curve of first compound, second compound 0.316 µM
  IC50: 19.1 nM
Curve of first compound, second compound 1 µM
  IC50: 17.4 nM
Second compound 0.00316 µM, first compound 0.00316 µM
  viability, T/C: 98.2%
Second compound 0.00316 µM, first compound 0.01 µM
  viability, T/C: 68.9%
Second compound 0.00316 µM, first compound 0.0316 µM
  viability, T/C: 37.3%
Second compound 0.00316 µM, first compound 0.1 µM
  viability, T/C: 20.8%
Second compound 0.00316 µM, first compound 0.316 µM
  viability, T/C: 23.6%
Second compound 0.00316 µM, first compound 1 µM
  viability, T/C: 25.7%
Second compound 0.01 µM, first compound 0.00316 µM
  viability, T/C: 97.5%
Second compound 0.01 µM, first compound 0.01 µM
  viability, T/C: 73.5%
Second compound 0.01 µM, first compound 0.0316 µM
  viability, T/C: 32.8%
Second compound 0.01 µM, first compound 0.1 µM
  viability, T/C: 20%
Second compound 0.01 µM, first compound 0.316 µM
  viability, T/C: 24.9%
Second compound 0.01 µM, first compound 1 µM
  viability, T/C: 22.6%
Second compound 0.0316 µM, first compound 0.00316 µM
  viability, T/C: 99.3%
Second compound 0.0316 µM, first compound 0.01 µM
  viability, T/C: 74.4%
Second compound 0.0316 µM, first compound 0.0316 µM
  viability, T/C: 38.5%
Second compound 0.0316 µM, first compound 0.1 µM
  viability, T/C: 18.3%
Second compound 0.0316 µM, first compound 0.316 µM
  viability, T/C: 20.9%
Second compound 0.0316 µM, first compound 1 µM
  viability, T/C: 24%
Second compound 0.1 µM, first compound 0.00316 µM
  viability, T/C: 106%
Second compound 0.1 µM, first compound 0.01 µM
  viability, T/C: 86%
Second compound 0.1 µM, first compound 0.0316 µM
  viability, T/C: 34%
Second compound 0.1 µM, first compound 0.1 µM
  viability, T/C: 23.8%
Second compound 0.1 µM, first compound 0.316 µM
  viability, T/C: 21.7%
Second compound 0.1 µM, first compound 1 µM
  viability, T/C: 23.2%
Second compound 0.316 µM, first compound 0.00316 µM
  viability, T/C: 98.9%
Second compound 0.316 µM, first compound 0.01 µM
  viability, T/C: 73%
Second compound 0.316 µM, first compound 0.0316 µM
  viability, T/C: 32.4%
Second compound 0.316 µM, first compound 0.1 µM
  viability, T/C: 22.6%
Second compound 0.316 µM, first compound 0.316 µM
  viability, T/C: 24.1%
Second compound 0.316 µM, first compound 1 µM
  viability, T/C: 26.3%
Second compound 1 µM, first compound 0.00316 µM
  viability, T/C: 97.1%
Second compound 1 µM, first compound 0.01 µM
  viability, T/C: 64.2%
Second compound 1 µM, first compound 0.0316 µM
  viability, T/C: 35.5%
Second compound 1 µM, first compound 0.1 µM
  viability, T/C: 21.9%
Second compound 1 µM, first compound 0.316 µM
  viability, T/C: 17.9%
Second compound 1 µM, first compound 1 µM
  viability, T/C: 24.3%

## C=CC(=O)N1CCN(c2nc(OCC3CCCN3C)nc3c(F)c(-c4nc(N)cc(C)c4C(F)(F)F)c(Cl)cc23)C(C)C1 (configuration not stated)
Compound 0.00316 µM
  viability, T/C: 109% [middle of 12 runs]
Compound 0.01 µM
  viability, T/C: 108% [middle of 12 runs]
Compound 0.0316 µM
  viability, T/C: 108% [middle of 12 runs]
Compound 0.1 µM
  viability, T/C: 107% [middle of 12 runs]
Compound 0.316 µM
  viability, T/C: 105% [middle of 12 runs]
Compound 1 µM
  viability, T/C: 103% [middle of 12 runs]
Compound alone, run of 09/09/2024
  IC50: > 1000 nM
Curve of compound
  IC50: > 1000 nM
